# Columns and labels:
# [1] = system: IL-6 receptor; assay: binding competition assay / Scatchard analysis with 125I-IL-6 on human myeloma cell line U-266; conditions: Kd wild-type IL-6 divided by Kd mutein; result in words
# Description: The affinity may be determined with a Scatchard analysis and quantitated as a dissociation constant, Kd.
# Binding competition assays are performed using human recombinant IL-6 derived from Escherichia coli (Genetics Institute, Cambridge, Mass.). IL-6 is radioiodinated using the Bolton-Hunter reagent (New England Nuclear, Wilmington, Del.) as described by Faltynek, C. […] The specific activity of the radiolabelled IL-6 is 22 μC/μg. […] This medium is also used for making the dilutions of the IL-6 muteins and as the binding medium. The fetal bovine serum batches are routinely tested for IL-6 activity and only batches that show negligible IL-6 activity are used for competition binding assays. […]
# Binding is performed by sealing the plates with acetate plate sealers (ICN Biomedicals, Costa Mesa, Calif.) and end-over rotation for 3 hours at 4° C. […] The cell pellets are washed once with 200 μl of ice-cold Ca^++ /Mg^+ free Hank's balanced salt solution (HBSS), resuspended in 200 μl of HBSS, transferred to scintillation vials and counted in a gamma counter.
# The results of the Scatchard and competition binding assays are analyzed using a non-linear curve fitting program LIGAND. […] An apparent IC50 is calculated using the EBDA/LIGAND program.
# [2] = system: human hepatoma cell line HEP3B2; assay: hepatocyte stimulation (fibrinogen induction) assay using human hepatoma cell line HEP3B2; type: cell-based; conditions: in vitro activity on a human hepatoma cell line; result in words
# Description: The biological activity of wild-type IL-6 and IL-6 muteins can be measured by standard assays for measuring IL-6 activity, as is known in the art. For example, the in vitro biological activity of the IL-6 muteins of the invention may be compared with native IL-6 in a fibrinogen induction assay using a human hepatoma cell line, HEP3B2. When determined in such an assay and expressed as a percentage of activity of native, wild-type, IL-6, the activity of which is defined as 100%, the biological activity of the muteins of the present invention is at least 125%, preferably at least 150%. (See Example 3 and FIG. 6)
# The hepatocyte stimulation assay using human hepatoma cell line HEP3B2 is carried out in duplicate serial dilutions of three or more independent preparations of each IL-6 mutein. The biological activity is determined from dose response curves prepared for each protein preparation. To minimize variation, a duplicate protein preparation of wild-type IL-6 is used in each 96-well tissue culture plate to calculate the activity of two (HEP3B2) IL-6 muteins on the same plate as a percentage of wild-type IL-6 activity. (See FIG. 6)
# Cells from the human hepatoma cell line HEP3B2 are maintained in DMEM-H medium supplemented with 10% fetal bovine serum and penicillin/streptomycin. […] The OD405 is determined on a Vmax ELISA plate reader (Molecular Devices Corp., Palo Alto, Calif.). […]
substance,measurement,setting,value
IL-6 mutein with Phenylalanine at position 171 of the native sequence (Phe^171) replaced by Leucine (Leu): mutein of human IL-6 with substitution of Phenylalanine by Leucine at position 171; SEQ. ID. NOS. 3 and 4,receptor binding capacity compared to wild-type IL-6,[1],increased receptor binding capacity
same,biological activity compared to wild-type IL-6,[2],higher biological activity
